From US11109611B2, “Compositions and methods that modulate digestibility in a companion animal” (Societe des Produits Nestle SA, priority 2016, dated 2021)

Columns and labels:
Type in all cases: in vivo, canine
Details in all cases: plasma after overnight fasting in fifth week of feeding, correlations with P value < 0.01
Canines [1] = test: Metabolite correlations with organic matter digestibility (plasma metabolomics)
Experimental: (§1) 83 Canines were all fed Diet A for 5 weeks, followed by a 1 week transition period and then 15 were fed Diet B for 5 weeks as shown in the Table 1 below. Plasma samples were taken after overnight fasting using EDTA vacutainer tubes during the fifth week of feeding of each diet. After centrifugation, plasma was aliquoted into cryovials and frozen at −80° C.
(§2) Metabolomic analysis was carried out using the following methods by Metabolon Inc. Samples were extracted and split into equal parts for analysis on GC/MS and LC/MS/MS platforms. Proprietary software was used to match ions to an in-house library of standards for metabolite identification and for metabolite quantitation by peak area integration by Metabolon Inc. Mass and retention index are provided in the following tables such that each metabolite can be uniquely identified and individually distinguished.
(§3) At the time of analysis, samples were thawed and extracts prepared to remove protein, dislodge small molecules bound to protein or physically trapped in the precipitated protein matrix, and recover a wide range of chemically diverse metabolites. A separate aliquot of each experimental plasma sample was taken then pooled for the creation of “Client Matrix” (CMTRX) samples. These CMTRX samples were injected throughout the platform run and served as technical replicates, allowing variability in the quantitation of all consistently detected biochemicals to be determined and overall process variability and platform performance to be monitored. Extracts of all experimental and CMTRX samples were split for analysis on the GC/MS and LC/MS/MS platforms.
(§4) The CMTRX technical replicate samples were treated independently throughout the process as if they were client study samples. All process samples (CMTRX and Grob test mixtures of organic components used to assess GC column performance, process blanks, etc.) were spaced evenly among the injections for each day and all client samples were randomly distributed throughout each day's run. Data were collected over multiple platform run days and thus ‘block normalized’ by calculating the median values for each run-day block for each individual compound. […] Missing values (if any) were assumed to be below the level of detection for that biochemical with the instrumentation used and were imputed with the observed minimum for that particular biochemical.
(§5) A number of internal standards were added to each experimental and process standard sample just prior to injection into the mass spectrometers.
Metabolite correlations with organic matter digestibility were determined based on plasma metabolomics (Table 2). […] The metabolite compositions of the two different diets were determined to identify relative levels of specific compounds.

Canines [2] = test: Metabolite correlations with dry matter digestibility (plasma metabolomics)
Experimental: as §1, §2, §3, §4, §5
Metabolite correlations with dry matter digestibility were determined based on plasma metabolomics (Table 6). […] Feeding different levels of these compounds (diet B vs diet A; Table 7), and noting changes in dry matter digestibility (Table 8), served as a validation model. The metabolite compositions of the two different diets were determined to identify relative levels of specific compounds.

Canines [3] = test: Metabolite correlations with fiber digestibility (plasma metabolomics)
Experimental: as §1, §2, §3, §4
A number of internal standards were added to each experimental and process standard sample just prior to injection into the mass spectrometers. A measure of the platform variability (7%) was determined by calculating the median relative standard deviation (RSD) for these internal standards. Because these standards are added to the samples immediately prior to injection into the instrument, this value reflects instrument variation. In addition, the median relative standard deviation (RSD) for the biochemicals that were consistently measured in the CMTRX represents the total variability within the process for the actual experimental samples and the variability in quantitation of the endogenous metabolites within these samples (12%).
589 total metabolites were detected in plasma. […]
Metabolite correlations with fiber digestibility were determined based on plasma metabolomics (Table 10). […] The metabolite compositions of the two different diets were determined in order to identify relative levels of specific compounds.

Compound	Correlation with organic matter digestibility (Canines [1])	Correlation with dry matter digestibility (Canines [2])	Correlation with fiber digestibility (Canines [3])
1-palmitoylplasmenylethanolamine	−0.4149	−0.4127	−0.3651
OC[C@H]1OC[C@H](O)[C@@H](O)[C@@H]1O [1,5-anhydroglucitol (1,5-AG)]	−0.2973		
CCCCCCCCCCCCCCCCC(=O)OC[C@@H](O)COP(=O)(O)OCCN [1-heptadecanoylglycerophosphoethanolamine]	−0.4779	−0.4635	−0.4181
CCCCC/C=C\C/C=C\CCCCCCCC(=O)OCC(O)COP(=O)(O)OCCN (centres unmarked) [1-linoleoylglycerophosphoethanolamine]	−0.2924		
CCCCCCCC/C=C\CCCCCCCC(=O)OCC(O)COP(=O)(O)OCCN (centres unmarked) [1-oleoylglycerophosphoethanolamine]	−0.4678	−0.4501	
CCCCCCCCCCCCCCCC(=O)OCC(O)CO (centres unmarked) [1-palmitoylglycerol (1-monopalmitin)]			−0.3548
CCC(N)C(=O)O (centres unmarked) [2-aminobutyrate]	0.4586	0.4535	
CC(C)(O)C(=O)O [2-hydroxyisobutyrate]	0.3269	0.2975	
CCCCC/C=C\C/C=C\CCCCCCCC(=O)O[C@H](CO)COP(=O)(O)OCCN [2-linoleoylglycerophosphoethanolamine]	−0.3461	−0.3262	
CCCCCCCC/C=C\CCCCCCCC(=O)OC(CO)COP(=O)(O)OCCN (centres unmarked) [2-oleoylglycerophosphoethanolamine]	−0.3761	−0.3648	
CC(O)CC(=O)O (centres unmarked) [3-hydroxybutyrate (BHBA)]	0.4249	0.3858	
CC(C)C(=O)C(=O)O [3-methyl-2-oxobutyrate]	0.3345	0.3102	
CCCCC/C=C\C/C=C\C/C=C\C/C=C\CCCCCC(=O)O [adrenate (22:4n6)]	0.4225	0.366	
Cc1c(C)c2c(c(C)c1O)CC[C@@](C)(CCC[C@H](C)CCC[C@H](C)CCCC(C)C)O2 [alpha-tocopherol]			−0.3263
OC[C@@H](O)C(O)[C@H](O)CO [arabitol]	−0.3609	−0.369	
CCCCC/C=C\C/C=C\C/C=C\C/C=C\CCCC(=O)O [arachidonate (20:4n6)]	0.5395	0.4779	
CC(C)(O)CC(=O)O [beta-hydroxyisovalerate]	0.3342	0.2994	
N[C@@H](CCC(=O)N[C@@H](CSSC[C@H](N)C(=O)O)C(=O)NCC(=O)O)C(=O)O [cysteine-glutathione disulfide]	−0.5693	−0.5458	
CCCCC/C=C\C/C=C\CCCCCCCCCC(=O)O [dihomo-linoleate (20:2n6)]	0.5242	0.4696	

Compound	Correlation with organic matter digestibility (Canines [1])	Correlation with dry matter digestibility (Canines [2])	Correlation with fiber digestibility (Canines [3])
CC/C=C\C/C=C\C/C=C\C/C=C\C/C=C\CCCCCC(=O)O [docosapentaenoate (n3 DPA; 22:5n3)]	0.4157	0.3814	
CCCCC/C=C\C/C=C\C/C=C\C/C=C\C/C=C\CCC(=O)O [docosapentaenoate (n6 DPA; 22:5n6)]	0.4971	0.4484	
O=C(O)C(O)CO (centres unmarked) [glycerate]	0.3968	0.3423	
O=C(O)CO [glycolate (hydroxyacetate)]	0.3449	0.3124	
CCCCC/C=C\C/C=C\CCCCCCCC(=O)O [linoleate (18:2n6)]	0.287		
CCCCCCCC(=O)O[C@H](CC(=O)O)C[N+](C)(C)C [octanoylcarnitine]	0.3604	0.3264	
CCCCCCCCCCCCCCCC(=O)O [palmitate (16:0)]	0.3027	0.2862	
CCCCCC/C=C\CCCCCCCC(=O)O [palmitoleate (16:1n7)]	0.3097	0.3089	
O=C(O)C1CCCCN1 (centres unmarked) [pipecolate]	0.415	0.3661	
OC[C@@H](O)[C@@H](O)[C@@H](O)CO [ribitol]			−0.3122
C[N+]1(C)CCC[C@H]1C(=O)[O-] [stachydrine]	−0.3927	−0.3121	
CCCCCCCCCCCCCCCCCC(=O)O [stearate (18:0)]	0.2845		
C[n+]1cccc(C(=O)[O-])c1 [trigonelline (N′-methylnicotinate)]	−0.5801	−0.5297	
arabonate	−0.3117	−0.3013	
campesterol	−0.3283	−0.3101	
dihomo-linolenate (20:3n3 or n6)	0.4357	0.3649	
eicosenoate (20:1n9 or 11)	0.4051	0.3674	
linolenate [alpha or gamma; (18:3n3 or 6)]	0.3932	0.372	
threonate	0.3788	0.3492	
